Source: patent publication US20180221329A1, “CIS- AND TRANS-SUFFRUTICOSOL D AS THERAPEUTIC AGENTS” (MIDDLE TENNESSEE STATE UNIVERSITY, priority 2015, published 2018)

Key:
A549 cells [1] = assay: Oxidative stress assay (ROS, DHE, HCS reader); format: cell-based, human; settings: 24 h
Experimental: FIGS. 3A and 3B depict induction of oxidative stress by cis- and trans-suffruticosol D in A549 cells. A549 cells were treated with various concentrations of cis- or trans-suffruticosol D for 24 h, then stained with Hoechst and dihydroethidium (DHE) dye. Cells treated with Doxorubicin served as a positive control, and cells treated with vehicle only served as a negative control. The reactive oxygen species (ROS) levels were measured by the fluorescent intensity of DHE that was converted to ethidium bromide.
Oxidative stress assay. The Hitkit oxidative stress kit (Thermo Scientific, Waltham, Mass., USA) was used to determine the generation of reactive oxygen species (ROS) according to the manufacturer's instructions. Briefly, A549 cells were treated with cis- or trans-suffruticosol D for 24 h, fixed with warm 37% formaldehyde and stained with Hoechst and dihydroethidium (DHE) dye for 30 min at 37° C. with 5% CO2. Doxorubicin (DOX) at 1 μM concentration was used as a positive control and cells treated with vehicle only were used as negative control. ROS generation in the nuclei was indicated by the production of the fluorescent ethidium, and assessed by measuring the nuclear fluorescent intensity using an ArrayScan VTI High-content screening (HCS) reader (Thermo Scientific, Waltham, Mass., USA). Images were acquired and data was analyzed by vHCS Scan software.

[2] = system: NF-κB p65 nuclear translocation; assay: NF-κB nuclear translocation assay (HCS); format: cell-based, human; settings: 4 h, then TNF-α 30 min, A549
Experimental: FIGS. 6A and 6B depict inhibition of NF-κB translocation by cis- and trans-suffruticosol D in A549 cells. A549 cells were treated with various concentrations of cis- or trans-suffruticosol D for 4 h and then stimulated with […] TNF-α for 30 min. Cells treated with TNF-α alone or the vehicle only served as controls. The NF-κB translocation index was measured by the fluorescent intensity difference between the nucleus and cytoplasm.
NF-κB nuclear translocation assay. A Multiplexed NF-κB activation HCS Kit (Thermo Scientific, Waltham, Mass., USA) was used to assess NF-κB nuclear translocation. A549 cells were pre-treated with different concentrations of cis- or trans-suffruticosol D for 4 h, then 10 ng/mL of TNF-α was added to the cells for an additional 30 min. After treatment, cells were fixed and permeabilized prior to detection. NF-κB distribution was detected by adding NF-κB p65 primary antibodies and then staining with a secondary antibody conjugated with DyLight 549 and Hoechst dye (Thermo Scientific, Waltham, Mass., USA). […] Cells were imaged using an Arrayscan VTI HCS reader (Thermo Scientific, Waltham, Mass., USA). Data on the mean difference of NF-κB fluorescent intensity between the nuclear and cytoplasmic areas were collected and analyzed by vHCS Scan software.

A549 cells [3] = assay: Apoptosis assay (Annexin V/7-AAD flow cytometry); format: cell-based, human; settings: 24 h
Experimental: FIGS. 2A-E depict induction of apoptosis by cis- and trans-suffruticosol D in A549 cells. After 24 h treatment by cis- or trans-suffruticosol D, A549 cells were stained with Annexin V/7-amino-actinomycin D (7-AAD) and the percentage of apoptotic cells, as measured by fluorescence intensity, was assessed by flow cytometry. Cells treated with the vehicle, 1% dimethylsulfoxide, DMSO, only served as a negative control.
Apoptosis assay. The FlowCellect Annexin Red Kit (EMD Millipore, Billerica, Mass., USA) was used to determine the apoptosis rate in A549 cells according to the manufacturer's instructions. Briefly, A549 cells were plated in 96-well plates. After a 24 h treatment with cis- or trans-suffruticosol D at concentrations of 100, 32, and 10 μM, the floating and attached cells were collected for analysis. The cells were centrifuged at 700×g for 7 min and were resuspended in 100 μL Assay Buffer (EMD Millipore, Billerica, Mass., USA). Afterwards, the cells were stained with annexin-V for 15 min and 7-amino-actinomycin D (7-AAD) for 5 min, and examined with a Guava EasyCyte Flow Cytometer (EMD Millipore, Billerica, Mass., USA). Data was analyzed using Guava InCyte software.

[4] = system: MCF-7 (estrogen receptor-positive human breast adenocarcinoma) cells; assay: Cell proliferation assay (AlamarBlue), MCF-7; format: cell-based; settings: for IC50: MCF-7, 48 h, AlamarBlue; for Selectivity: MCF-7 versus normal HMEC cells
Experimental: Cell culture. Four human cancer cell lines including A549 (lung carcinoma), BT20 (estrogen receptor-negative human breast adenocarcinoma), MCF-7 (estrogen receptor-positive human breast adenocarcinoma) and U2OS (human osteosarcoma) were purchased from American Type Culture Collection (ATCC). An A549 cell line that stably expresses Green Fluorescent Protein (GFP) was purchased from Cell BioLabs Inc. (San Diego, Calif., USA). A549, A549-GFP and BT20 cells were cultured in RPMI 1640 media (Sigma-Aldrich, St. Louis, Mo., USA), MCF7 cells were cultured in DMEM medium (ATCC, Manassas, Va., USA), and U20S cells were cultured in McCoy's 5A medium (ATCC, Manassas, Va., USA). As a control, HMEC cells (primary human mammary breast epithelial cells) were purchased from ATCC and cultured in McCoy's 5A medium. All medium contained 10% FBS (Sigma-Aldrich, St. Louis, Mo., USA) and 1% streptomycin and penicillin (Sigma-Aldrich, St. Louis, Mo., USA). These cells were incubated in a humid environment with 5% CO2 at 37° C.
Cell proliferation assay. The resazurin reduction reagent AlamarBlue (Invitrogen, Frederick, Md., USA) was used to evaluate the cytotoxicity of the compounds. Cells were plated at a density of 5×10^3 cells per well in 96-well microplates with 100 μl culture medium, and were allowed to attach for 16 h prior to treatment. Next, all the medium was replaced with medium containing the cis- or trans-suffruticosol D compounds at seven different concentrations: 320, 100, 32, 10, 3.2, 1.0, and 0.32 μM. The cells were placed in an incubator for 48 h at 37° C. Cells that were treated with medium-containing vehicle (1% DMSO) only serve as negative control. Subsequently, AlamarBlue solution was added to the medium and the cells were incubated in the CO2 incubator for 1 h. The fluorescent intensity change of the dye was measured at Ex 555 nm and Em 590 nm using a plate reader (Molecular Devices, Sunnyvale, Calif., USA). The cytotoxicity was examined by determining by IC50, the dose that inhibited 50% of cell growth, using GraphPad Prism software (GraphPad Software, La Jolla, Calif., USA).
Table 1. IC50 values of cis- and trans-suffruticosol D in selected cancer and normal cell lines. Cells were treated with various concentrations of cis- or trans-suffruticosol D for 48 h, and the viability of cells was evaluated with AlamarBlue dye.

| Compound | increase of ROS levels (A549 cells [1]; 10 μM) [%] | increase of ROS levels (A549 cells [1]; 32 μM) [%] | increase of ROS levels (A549 cells [1]; 100 μM) [%] | inhibition of NF-κB activation (nuclear translocation index) ([2]; 100 μM only) | A549 cells induced into apoptosis (A549 cells [3]; 10 μM) [%] | A549 cells induced into apoptosis (A549 cells [3]; 32 μM) [%] | A549 cells induced into apoptosis (A549 cells [3]; 100 μM) [%] | IC50 ([4]; listed as cis-SD) [µM] | Selectivity ([4]; listed as cis-SD) | inhibition of NF-κB activation (nuclear translocation index) ([2]; all the tested concentrations) | IC50 ([4]; listed as trans-SD) [µM] | Selectivity ([4]; listed as trans-SD) |
| --- | --- | --- | --- | --- | --- | --- | --- | --- | --- | --- | --- | --- |
| Oc1ccc(C=Cc2c3c(cc4c2[C@@H](c2cc(O)cc(O)c2)[C@H](c2ccc(O)cc2)O4)O[C@H](c2ccc(O)cc2)[C@@H]3c2cc(O)cc(O)c2)cc1 [cis-suffruticosol D] | 32.8 | 55.6 | 73.1 | significant inhibition | 22.2 | 27.1 | 45.3 | 46.8 ± 3.3 | 5.8 |  |  |  |
| Oc1ccc(/C=C/c2c3c(cc4c2[C@@H](c2cc(O)cc(O)c2)[C@H](c2ccc(O)cc2)O4)O[C@H](c2ccc(O)cc2)[C@@H]3c2cc(O)cc(O)c2)cc1 [trans-suffruticosol D] | 32.8 | 34.6 | 87.2 |  | 30.1 | 39.8 | 41.9 |  |  | significant inhibition | 15.8 ± 1.6 | 9.3 |
